From publication PMC6848086, “Light on the cell cycle of the non-photosynthetic bacterium Ramlibacter tataouinensis” (Scientific Reports, 2019)

Molecular target: T1, RtBphP2 (Ramlibacter tataouinensis, UniProt F5Y6C4)
T1 construct: gene Rta_28950; full-length; His6 tag (pBAD/HisB); co-expressed with Bradyrhizobium sp; ORS278 heme oxygenase in E. coli TOP10; dimer
Test: gel electrophoresis with zinc fluorescence; absorption spectra of purified holoprotein
Assay type: binding
Conditions: covalent; chromophore formed in E. coli by co-expressed heme oxygenase

T1 sequence (F5Y6C4 entry or part of it): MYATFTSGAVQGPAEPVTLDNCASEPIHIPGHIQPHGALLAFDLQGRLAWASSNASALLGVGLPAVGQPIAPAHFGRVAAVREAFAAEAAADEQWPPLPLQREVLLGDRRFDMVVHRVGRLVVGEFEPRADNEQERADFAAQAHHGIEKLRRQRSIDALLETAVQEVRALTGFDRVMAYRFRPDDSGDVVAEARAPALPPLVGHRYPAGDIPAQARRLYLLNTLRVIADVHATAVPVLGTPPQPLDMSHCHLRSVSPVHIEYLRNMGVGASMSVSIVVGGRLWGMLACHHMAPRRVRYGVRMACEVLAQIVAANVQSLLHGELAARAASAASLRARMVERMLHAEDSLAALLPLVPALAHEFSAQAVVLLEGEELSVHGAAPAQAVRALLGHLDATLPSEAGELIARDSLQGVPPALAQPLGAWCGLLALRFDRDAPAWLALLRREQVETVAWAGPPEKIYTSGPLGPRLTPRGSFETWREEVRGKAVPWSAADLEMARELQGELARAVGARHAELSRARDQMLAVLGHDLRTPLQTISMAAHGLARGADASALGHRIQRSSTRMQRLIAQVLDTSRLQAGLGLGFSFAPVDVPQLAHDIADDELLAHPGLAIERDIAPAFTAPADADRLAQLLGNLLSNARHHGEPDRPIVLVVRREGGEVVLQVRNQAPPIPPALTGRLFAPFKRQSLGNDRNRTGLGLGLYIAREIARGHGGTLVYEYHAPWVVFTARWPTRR

## C=CC1=C(C)/C(=C/C2=NC(=C\c3[nH]c(/C=C4\NC(=O)C(C)=C4C=C)c(C)c3CCC(=O)O)/C(CCC(=O)O)=C2C)NC1=O [biliverdin]
  gel electrophoresis with zinc fluorescence; absorption spectra of purified holop: zinc fluorescence demonstrated that the biliverdin (BV) is covalently bound in both proteins
